Measured values from publication PMC4172929, “Patched Targeting Peptides for Imaging and Treatment of Hedgehog Positive Breast Tumors” (BioMed Research International, 2014).

System: 13762 breast carcinoma xenografts
Assay: Paclitaxel treatment of tumor xenografts (PTCH immunohistochemistry, tumor volume)
Format: in vivo, rat
Conditions: rats, 20 mg/kg paclitaxel
Method: All animal work was carried out in the Small Animal Imaging Facility (SAIF) at the University of Texas M.D. Anderson Cancer Center under an approved Institutional Animal Care and Use Committee (IACUC) protocol. Female Fischer 344 rats (150 ± 25 g, n = 6) (Harlan Sprague-Dawley, Indianapolis, IN) were inoculated subcutaneously with 0.1 mL of a 13762 breast carcinoma cell suspension (10^5 cells/rat of a breast tumor cell line specific to Fischer rats) into the hind legs using 25-gauge needles. Studies were performed 12–14 days after inoculation when tumors reached approximately 1 cm in diameter. For treatment studies, rats were injected with 20 mg/kg paclitaxel and reimaged 7 days later. After the posttreatment scan, tumors were removed and formalin sections were made. Control tumors were taken from untreated […] 13 days after inoculation. Sections were stained with an anti-patched antibody (Santa Cruz) using a peroxide-based immunohistochemical detection kit (Dako) according to the manufacturer's instructions.

CC(=O)O[C@H]1C(=O)[C@@]2(C)[C@H]([C@H](OC(=O)c3ccccc3)[C@]3(O)C[C@H](OC(=O)[C@H](O)[C@@H](NC(=O)c4ccccc4)c4ccccc4)C(C)=C1C3(C)C)[C@]1(OC(C)=O)CO[C@@H]1C[C@@H]2O [paclitaxel]
tumor volume after treatment: decrease | PTCH protein expression in the residual tumor (seven days after treatment, immunohistochemistry): increase
